What was measured:
Assay type in all cases: biochemical
[1] = molecular target: recombinant pjDHFR (Pneumocystis jirovecii, UniProt Q9UUP5); assay: Inhibition of recombinant pjDHFR
[2] = molecular target: T1, recombinant hDHFR (Homo sapiens, UniProt P00374); assay: Inhibition of recombinant hDHFR; conditions: compared to unsubstituted phenyl compound 4
T1 sequence (P00374 1-187): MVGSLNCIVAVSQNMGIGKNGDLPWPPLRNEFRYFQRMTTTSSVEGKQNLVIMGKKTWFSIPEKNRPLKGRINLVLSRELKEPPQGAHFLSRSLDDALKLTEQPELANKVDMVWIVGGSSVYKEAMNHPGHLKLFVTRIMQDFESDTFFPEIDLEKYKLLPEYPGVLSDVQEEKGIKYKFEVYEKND

[3] = molecular target: T2, maDHFR (Mycobacterium avium, UniProt O30463); assay: Inhibition of maDHFR
T2 sequence (O30463 1-181): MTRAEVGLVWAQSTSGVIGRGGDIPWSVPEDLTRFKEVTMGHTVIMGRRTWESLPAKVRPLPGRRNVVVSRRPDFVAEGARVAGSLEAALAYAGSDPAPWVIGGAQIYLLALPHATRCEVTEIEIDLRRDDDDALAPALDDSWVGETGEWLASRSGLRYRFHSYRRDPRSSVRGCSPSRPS

CN(c1ccccc1)c1cnc2nc(N)nc(N)c2c1 [Compound 16, N^6-methyl-N^6-phenylpyrido[2,3-d]pyrimidine-2,4,6-triamine]
fold more potent than TMP against pjDHFR [1]: about 50 fold

Nc1nc(N)c2cc(Nc3ccc4ccccc4c3)cnc2n1 [Compound 11, N^6-2-naphthylpyrido[2,3-d]pyrimidine-2,4,6-triamine]
fold loss in potency against hDHFR [2]: 10 fold

Nc1nc(N)c2cc(Nc3cccc4ccccc34)cnc2n1 [Compound 13, N^6-1-naphthylpyrido[2,3-d]pyrimidine-2,4,6-triamine]
fold loss in potency against hDHFR [2]: 10 fold

COc1cc(N(C)c2cnc3nc(N)nc(N)c3c2)cc(OC)c1OC [Compound 20, N^6-methyl-N^6-(3,4,5-trimethoxyphenyl)pyrido[2,3-d]pyrimidine-2,4,6-triamine]
inhibitory potency against maDHFR [3]: subnanomolar

CN(c1cc(F)c(F)c(F)c1)c1cnc2nc(N)nc(N)c2c1 [Compound 26, N^6-methyl-N^6-(3,4,5-trifluorophenyl)pyrido[2,3-d]pyrimidine-2,4,6-triamine]
fold more selective for pjDHFR than PTX [1]: 18 fold
fold difference in potency for pjDHFR made by the N9-Me moiety ([1]; pairs 16/4 and 26/15, from IC50 values in Table 5): ~200 fold

COc1cc(Nc2cnc3nc(N)nc(N)c3c2)cc(OC)c1OC [Compound 8, N^6-(3,4,5-trimethoxyphenyl)pyrido[2,3-d]pyrimidine-2,4,6-triamine]
h/pj selectivity ratio ([1]; IC50 hDHFR / IC50 pjDHFR): 12.7

CN(c1cnc2nc(N)nc(N)c2c1)c1cccc2ccccc12 [Compound 24, N^6-methyl-N^6-1-naphthylpyrido[2,3-d]pyrimidine-2,4,6-triamine]
rl/ma selectivity ratio ([3]; IC50 rlDHFR / IC50 maDHFR): 10.3

Reference: publication PMC3723128 (Journal of medicinal chemistry, 2013)
